The record followed here is patent publication US11673910B2, “Macrolides with modified desosamine sugars and uses thereof” (Zikani Therapeutics, Inc., priority 2017, dated 2023).

Values after ≈ are worked out from the molar mass of the structure shown.

Common to all, as to format: cell-based
For assay [1], the system named is A. baumannii strain MP-15. Briefly: Broth dilution MIC determination (CLSI) against A. baumannii strain MP-15. Particulars: Acinetobacter baumannii, MP15. As for the experimental part: (§1) Minimum inhibitory concentrations (MICs) for macrolides described herein were determined for E. coli strain MP-4, K. pneumoniae strain MP-548, P. aeruginosa strain MP-3, A. baumannii strain MP-15, and S. aureus strain MP-12 using similar test procedures as published in US Pat. Pub. No. 2017/0305953. MIC data is represented as “+++” for values less than or equal to 4 mg/L, “++” for values of greater than or equal to 8 mg/L and less than 32 mg/L, and “+” for values of 32 mg/L or greater. ND indicates no data for a particular compound. CLSI standard procedures for broth dilution MIC determination were used.

The next assay relates to S. aureus strain MP-12. Nature of the assay: Broth dilution MIC determination (CLSI) against S. aureus strain MP-12. As to conditions: for MIC: Staphylococcus aureus, MP12, strain MP-12; for MIC against S. aureus (MP-12): strain MP-12. As for the experimental part:
as §1
A general note: Broth dilution looks for growth in wells or tubes with falling amounts of substance.

For assay [2], the system named is K. pneumoniae strain MP-548. Nature of the assay: Broth dilution MIC determination (CLSI) against K. pneumoniae strain MP-548. Particulars: Klebsiella pneumoniae, MP548. As to the method: as §1
In the next assay the test system is E. coli strain MP-4. Nature of the assay: Broth dilution MIC determination (CLSI) against E. coli strain MP-4. Particulars: Escherichia coli, MP4. As to the method:
as §1

The subject of assay [3] is P. aeruginosa strain MP-3. Briefly: Broth dilution MIC determination (CLSI) against P. aeruginosa strain MP-3. Particulars: Pseudomonas aeruginosa, MP3. As to the method: as §1

As for `CC[C@H]1OC(=O)C(C)C(=O)[C@H](C)[C@@H](OC2OC(C(=O)N(C)C)CC(N(C)C)C2O)[C@](C)(OC)C[C@@H](C)CN[C@H](C)[C@H]2NC(=O)O[C@@]21C` (stereo partly shown) [Compound 167, 3-Descladinosyl-3-oxo-6-O-methyl-N9a-desmethyl-11,12-dideoxy-12,11-(oxycarbonylimino)-5′-desmethyl-5′-(N,N-dimethylcarboxamido) Azithromycin], the MIC (in assay [1]; with S. aureus strain MP-12; in assay [2]; against E. coli strain MP-4; in assay [3]) was at least 32 µg/mL throughout.
Take `CC[C@H]1OC(=O)C(C)C(=O)[C@H](C)[C@@H](O[C@@H]2O[C@H](CNC(C)C)CC(N(C)C)[C@H]2O)[C@](C)(OC)C[C@@H](C)CN(C)[C@H](C)[C@H]2NC(=O)O[C@@]21C` (stereo partly shown) [Compound 164, 3-Descladinosyl-3-oxo-6-O-methyl-11,12-dideoxy-12,11-(oxycarbonylimino)-6′-isopropylamino Azithromycin]: the MIC (commonly the lowest concentration found to suppress growth) is at least 32 µg/mL in assay [1]; at least 32 µg/mL against S. aureus strain MP-12; 8 to 32 µg/mL (≈ 11.7 to 46.7 µM) in assay [2]; at most 4 µg/mL against E. coli strain MP-4; at least 32 µg/mL in assay [3].
For the compound `CC[C@H]1OC(=O)[C@@]2(C)CCOC(C)(C[C@@H](C)CN[C@H](C)[C@H]3NC(=O)O[C@@]31C)[C@H](O[C@@H]1OC(C)CC(N(C)C)C1O)[C@@H](C)C2=O` (stereo partly shown) [Compound 219], the minimal inhibitory concentration (MIC) in assay [1] was 8 to 32 µg/mL (≈ 12.8 to 51.1 µM); against S. aureus strain MP-12, at most 4 µg/mL; in assay [2], at most 4 µg/mL; against E. coli strain MP-4 it was at most 4 µg/mL; in assay [3] it was at least 32 µg/mL.
As for `CC[C@H]1OC(=O)C(C)C(=O)[C@H](C)[C@@H](O[C@@H]2O[C@H](CNC3CCC3)CC(N(C)C)[C@H]2O)[C@](C)(OC)C[C@@H](C)CN(C)[C@H](C)[C@H]2NC(=O)O[C@@]21C` (stereo partly shown) [Compound 163, 3-Descladinosyl-3-oxo-6-O-methyl-11,12-dideoxy-12,11-(oxycarbonylimino)-6′-cyclobutylamino Azithromycin], the MIC in assay [1] was at least 32 µg/mL; in the assay on S. aureus strain MP-12 it was at least 32 µg/mL; in assay [2], at most 4 µg/mL; in the assay on E. coli strain MP-4 it was at most 4 µg/mL; in assay [3] it was at least 32 µg/mL.
On to `CC[C@H]1OC(=O)C(C)C(=O)[C@H](C)[C@@H](OC2OC(CN(C)C(C)C)CC(N(C)C)C2O)[C@](C)(OC)C[C@@H](C)CN[C@H](C)[C@H]2NC(=O)O[C@@]21C` (stereo partly shown) [Compound 154, 3-Desdadinosyl-3-oxo-6-O-methyl-N9a-desmethyl-11,12-dideoxy-12,11-(oxycarbonylimino)-6′-isopropylmethylamino Azithromycin], for which the minimum inhibitory concentration (MIC) in assay [1] was at least 32 µg/mL; against S. aureus strain MP-12, at least 32 µg/mL; in assay [2], 8 to 32 µg/mL (≈ 11.7 to 46.7 µM); against E. coli strain MP-4, at most 4 µg/mL; in assay [3] it was at least 32 µg/mL.
As to `CC[C@H]1OC(=O)C(C)C(=O)[C@H](C)[C@@H](O[C@@H]2OC(CNCc3ccc(N(C)C)cc3)CC(N(C)C)C2O)[C@](C)(OC)C[C@@H](C)CN[C@H](C)[C@H]2NC(=O)O[C@@]21C` (stereo partly shown) [Compound 44], the minimum inhibitory concentration (MIC) was at least 32 µg/mL in assay [1]; at least 32 µg/mL against S. aureus strain MP-12; at least 32 µg/mL in assay [2]; at most 4 µg/mL against E. coli strain MP-4; at least 32 µg/mL in assay [3].
Take `CC[C@H]1OC(=O)C(C)C(=O)[C@H](C)[C@@H](O[C@@H]2OC(CNCc3ccc(F)cc3)CC(N(C)C)C2O)[C@](C)(OC)C[C@@H](C)CN[C@H](C)[C@H]2NC(=O)O[C@@]21C` (stereo partly shown) [Compound 18]: the MIC in assay [1] is at least 32 µg/mL; against S. aureus strain MP-12 it was at least 32 µg/mL; in assay [2] it was 8 to 32 µg/mL (≈ 10.9 to 43.4 µM); with E. coli strain MP-4, at most 4 µg/mL; in assay [3], at least 32 µg/mL.
Consider `CC[C@H]1OC(=O)C(C)C(=O)[C@H](C)[C@@H](O[C@@H]2OC(CNCc3cn(-c4cncnc4)nn3)CC(N(C)C)C2O)[C@](C)(OC)C[C@@H](C)CN[C@H](C)[C@H]2NC(=O)O[C@@]21C` (stereo partly shown) [Compound 24], for which the MIC (in assay [1]; against S. aureus strain MP-12; in assay [2]; in the assay on E. coli strain MP-4; in assay [3]) was at least 32 µg/mL in each case.
Take `CC[C@H]1OC(=O)[C@@](C)(F)C(=O)[C@H](C)[C@@H](O[C@@H]2OC(CNCc3cccc(-c4cncnc4)c3)CC(N(C)C)C2O)[C@](C)(OC)C[C@@H](C)C(=O)[C@H](C)[C@H]2NC(=O)O[C@@]21C` (stereo partly shown) [Compound 93]: the MIC was at least 32 µg/mL in assay [1]; at most 4 µg/mL in the assay with S. aureus strain MP-12; at least 32 µg/mL in assay [2]; at least 32 µg/mL in the assay on E. coli strain MP-4; at least 32 µg/mL in assay [3].
Turning to `CC[C@H]1OC(=O)C(C)C(=O)[C@H](C)[C@@H](O[C@@H]2O[C@H](CN(C)C(=O)CNC)CC(N(C)C)[C@H]2O)[C@](C)(OC)C[C@@H](C)CN[C@H](C)[C@H]2NC(=O)O[C@@]21C` (stereo partly shown) [Compound 173, 3-Descladinosyl-3-oxo-6-O-methyl-N9a-desmethyl-11,12-dideoxy-12,11-(oxycarbonylimino)-6′-N-methyl-2″-methylamino-acetamide Azithromycin], the minimum inhibitory concentration (MIC) (in assay [1]; with S. aureus strain MP-12; in assay [2]; against E. coli strain MP-4; in assay [3]) was at least 32 µg/mL each time.
Turning to `CC[C@H]1OC(=O)[C@]2(C)CCOC(C)(C[C@@H](C)CN[C@H](C)[C@H]3NC(=O)O[C@@]31C)[C@H](O[C@@H]1O[C@H](CNC34CC(C3)C4)C[C@H](N(C)C)[C@H]1O)[C@@H](C)C2=O` [Compound 205], the “MIC against S. aureus (MP-12)” value in the assay with S. aureus strain MP-12 is on record as “+ (values of 32 mg/L or greater)”.
On to `CC[C@H]1OC(=O)[C@]2(C)CCO[C@](C)(C[C@@H](C)CN[C@H](C)[C@H]3NC(=O)O[C@@]31C)[C@H](O[C@@H]1O[C@H](CNC3CC3)C[C@H](N(C)C)[C@H]1O)[C@@H](C)C2=O` [Compound 203], for which the MIC (against S. aureus strain MP-12; in assay [3]) was at least 32 µg/mL throughout.
The compound `CCC1CO[C@@]2(C)C[C@@H](C)CN[C@H](C)[C@H]3NC(=O)O[C@]3(C)[C@@H](CC)OC(=O)[C@@]1(C)C(=O)[C@H](C)[C@H]2OC1OC(C)CC(N(C)C)C1O` (stereo partly shown) [Compound 225] gave a minimum inhibitory concentration (MIC) in the assay on S. aureus strain MP-12 of at least 32 µg/mL.
For the compound `CC[C@H]1OC(=O)C(C)C(=O)[C@H](C)[C@@H](OC2OC(CNCC3CC3)CC(N(C)C)C2O)[C@](C)(OC)C[C@@H](C)CN[C@H](C)[C@H]2NC(=O)O[C@@]21C` (stereo partly shown) [Compound 119, 3-Descladinosyl-3-oxo-6-O-methyl-N9a-desmethyl-11,12-dideoxy-12,11-(oxycarbonylimino)-6′-(cyclopropylmethylamino) Azithromycin], the MIC in assay [1] is at least 32 µg/mL; with S. aureus strain MP-12, at least 32 µg/mL; in assay [2] it was 8 to 32 µg/mL (≈ 11.7 to 46.9 µM); with E. coli strain MP-4, at most 4 µg/mL.
“3-Descladinosyl-3-oxo-6-O-methyl-N9a-desmethyl-11,12-dideoxy-12,11-(oxycarbonylimino)-6,11-(Z-2-butenyl)-6′-cyclopropylamino azithromycin [Compound 230]”: the “MIC against S. aureus (MP-12)” value in the assay with S. aureus strain MP-12 is reported as “+ (values of 32 mg/L or greater)”.
Regarding `CC[C@H]1OC(=O)[C@]2(C)CCOC(C)(C[C@@H](C)CN[C@H](C)[C@H]3NC(=O)O[C@@]31C)[C@H](O[C@@H]1O[C@H](CNCC(F)(F)F)C[C@H](N(C)C)[C@H]1O)[C@@H](C)C2=O` [Compound 207], the minimum inhibitory concentration (MIC) against S. aureus strain MP-12 is at least 32 µg/mL.
In the assay on S. aureus strain MP-12, `CC[C@H]1OC(=O)[C@@]2(C)CCOC(C)(C[C@@H](C)CN(CC(C)C)[C@H](C)[C@H]3NC(=O)O[C@@]31C)[C@H](O[C@@H]1OC(C)CC(N(C)C)C1O)[C@@H](C)C2=O` (stereo partly shown) [Compound 222] came in with an MIC of 8 to 32 µg/mL (≈ 11.7 to 46.9 µM).
